Measured values reported in US9017744B2, “Method of using isomaltulose to suppress blood glucose level increase” (Mitsui Sugar Co., Ltd., priority 2002, dated 2015).

Columns and labels:
[1] = Blood glucose level test after ingesting drinks (Example 1); format: in vivo, human; conditions: for blood glucose level increase: FIG. 1
Experimental: Using each of the Comparative drinks as a control sample, a blood glucose level test after ingesting the drink was performed as will be described later. […] Using each of the Example drinks as a test sample, a blood glucose level test after ingesting the drink was performed. The blood glucose level test was as follows: Five healthy volunteers (4 males and 1 female), 31-40 aged, were selected as the test subjects. They took no breakfast on a test day and kept fasting for 12 hrs or more before the start of the test. Their bloods were collected before ingesting a drink (0 min), and 30 min, 60 min, 90 min, and 120 min after ingesting it. As a result their blood glucose levels are determined. One kind of drink was ingested for one test. Another drink was ingested on another day and the test was carried out once a day for total 8 days. The same five test subjects were applied to all the tests for blood glucose levels. In the Example 1, the free style Kissei kit (made by Kissei Pharmaceutical Co., LTD) was used to collect blood samples and test a blood glucose level.

[2] = Body fat accumulation in mice fed feeds for 8 weeks (Example 3); format: in vivo, C57BL/6CrSlc(SPF) male mice
From the text: Mice were consecutively fed with a feed added with isomaltulose, a feed added with sucrose and no isomaltulose, and a feed added with both isomaltulose and sucrose to compare their body fat accumulation amount.
C57BL/6CrSlc(SPF) male mice (30 heads) aged 7 weeks were fed with a commercial powder feed (trade name: CRF-1 powder, made by Oriental Yeast Co., LTD) and water ad libitum to prefeed for a week. […] The groups were fed with their respective feeds and water ad libitum for 8 weeks. The feeding condition was as follows: temperature 22±3° C., humidity (relative humidity) 50±20%, ventilation cycles 13-17 times/hr, and lighting time 8:00-20:00 (light 12 hrs, dark 12 hrs).
After the end of the feeding, the mice were light anesthetized with ether and sectioned abdominally to exsanguinate from postcava to death. For a typical example of every group, digital photographs showing body fat accumulation inside the abdominal cavity were taken. Then, for all the cases, the kidney peripheral fat (including the retroperitoneal fat) and the epididymis peripheral fat were taken out to measure their wet weights separately in left and right. The mesenteric fat also was taken out to measure its wet weight. These three kinds of fat tissues are typical of visceral fat. […]

[3] = Heat coloring of carbohydrate with glutamic acid (Test Example 1); format: physicochemical; conditions: for absorbance at a wavelength of 420 nm: 5 g carbohydrate + 1 g glutamic acid in 50 g
Experimental: 5 g of carbohydrate and 1 g of glutamic acid were dissolved in distilled water to prepare a sample having a total weight of 50 g. […] These samples were filled in 100 ml capped vials and then heated at 100° C. for 50 min. After the heating, samples were cooled and respective absorbances were measured at a wavelength of 420 nm.
Three same kinds of samples were prepared and treated in an autoclave at 121° C. for 20 min, that is, the same level as in retort sterilization for a canned food, and measured the absorbance at a wavelength of 420 nm.

[4] = Crystallization of 50 wt % solutions stored at 5° C. (Test Example 2); format: physicochemical
Experimental: Dissolution was performed until no crystal remained at 50° C. These vials were put in a refrigerator set at 5° C. to observe crystallization.

[5] = monohydrate; at 20° C.; cited from earlier work
[6] = rats; high fat diet, all sucrose replaced by isomaltulose, compared with sucrose-containing feed; cited from earlier work
[7] = autoclave at 121° C. for 20 min

absorbance at a wavelength of 420 nm [3, 7]	absorbance at a wavelength of 420 nm ([3]; heated at 100° C. for 50 min)	visual colour of sample [3, 7]	storage time at which crystallization began ([4]; 50 wt % solution, 100 ml)	amount of crystal ([4]; 50 wt % solution, 100 ml, after 6 days)	crystallization observed ([4]; 50 wt % total sugar solution, during 6 days)	SMILES	increase in blood glucose level after consuming the carbohydrates ([1]; 25 g isomaltulose in combination with 25 g sucrose or 25 g glucose)	area under blood glucose level increase curve ([1]; 25 g isomaltulose in combination with 25 g sucrose or 25 g glucose, compared with the Comparative groups)	minimum intake of isomaltulose necessary to reduce an increase in blood glucose level ([1]; in vivo)	blood glucose level increase ([1]; simultaneous ingestion of 25 g isomaltulose and 25 g glucose, compared with 25 g glucose alone)	blood glucose level increase ([1]; simultaneous ingestion of 25 g isomaltulose and 25 g sucrose, compared with 50 g sucrose alone and 25 g sucrose alone)	isomaltulose ratio in total carbohydrate at which the GI value surely decreased ([1]; total carbohydrate weight 50 g, FIG. 4)	ratio of isomaltulose in carbohydrate at which it reduces the accumulation of body fat ([2]; mouse, in vivo)	minimum intake of isomaltulose necessary to reduce a body fat accumulation ([2]; presumed, in terms of a person having a body weight of 60 kg)	solubility [5]	body fat accumulation amount [6]	blood glucose level 30 minutes after ingesting ([1]; 25 g ingested alone (Comparative example))	blood glucose level 30 minutes after ingesting ([1]; 50 g ingested alone (Comparative example))
0.322	0.004	clearly deep brown	2 days	10.77 g	–	OC[C@H]1O[C@H](OC[C@H]2OC(O)(CO)[C@@H](O)[C@@H]2O)[C@H](O)[C@@H](O)[C@@H]1O (stereo partly drawn) [isomaltulose, 6-O-alpha-D-Glucopyranosyl-D-fructofuranose]	no sudden increases	significantly lower values	≥ 5 g	reduced	reduced	≥ 10%	≥ 20%	≥ 10 g	38.4 g in 100 g water	lower body fat accumulation amount	–	–
–	–	clearly light brown	–	–	no crystallization	OC[C@H]1O[C@@](CO)(O[C@H]2O[C@H](CO)[C@@H](O)[C@H](O)[C@H]2O)[C@@H](O)[C@@H]1O [sucrose, reference compound]	–	–	–	–	–	–	–	–	–	–	sudden increase	sudden increase
